Assay results reported in paper PMC8633983, “GTP binding to translation factor eIF2B stimulates its guanine nucleotide exchange activity” (iScience, 2021).

Target: T1, eIF2Bγ (in eIF2B complex) (Saccharomyces cerevisiae, UniProt P09032)
T1 construct: gene GCD1; purified eIF2B complex; with eIF2Bε (GCD6) and the other eIF2B subunits
Test: competition filter binding against […]-GTP

T1 sequence (P09032 whole entry): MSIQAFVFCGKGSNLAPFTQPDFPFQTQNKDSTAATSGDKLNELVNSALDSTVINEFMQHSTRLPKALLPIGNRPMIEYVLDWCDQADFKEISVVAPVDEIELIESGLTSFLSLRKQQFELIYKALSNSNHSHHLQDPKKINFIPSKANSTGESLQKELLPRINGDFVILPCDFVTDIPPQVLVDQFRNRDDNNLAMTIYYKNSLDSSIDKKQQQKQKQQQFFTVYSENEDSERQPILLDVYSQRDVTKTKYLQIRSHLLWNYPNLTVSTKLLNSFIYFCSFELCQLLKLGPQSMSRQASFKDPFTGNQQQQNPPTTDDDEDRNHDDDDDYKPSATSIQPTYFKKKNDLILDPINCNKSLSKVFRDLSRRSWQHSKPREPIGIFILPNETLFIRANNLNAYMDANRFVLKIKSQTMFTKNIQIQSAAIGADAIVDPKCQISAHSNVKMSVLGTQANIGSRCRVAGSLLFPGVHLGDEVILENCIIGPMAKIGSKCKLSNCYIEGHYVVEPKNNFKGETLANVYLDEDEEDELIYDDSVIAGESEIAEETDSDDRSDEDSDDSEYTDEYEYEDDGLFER
T1 sequence (P32501 whole entry partner): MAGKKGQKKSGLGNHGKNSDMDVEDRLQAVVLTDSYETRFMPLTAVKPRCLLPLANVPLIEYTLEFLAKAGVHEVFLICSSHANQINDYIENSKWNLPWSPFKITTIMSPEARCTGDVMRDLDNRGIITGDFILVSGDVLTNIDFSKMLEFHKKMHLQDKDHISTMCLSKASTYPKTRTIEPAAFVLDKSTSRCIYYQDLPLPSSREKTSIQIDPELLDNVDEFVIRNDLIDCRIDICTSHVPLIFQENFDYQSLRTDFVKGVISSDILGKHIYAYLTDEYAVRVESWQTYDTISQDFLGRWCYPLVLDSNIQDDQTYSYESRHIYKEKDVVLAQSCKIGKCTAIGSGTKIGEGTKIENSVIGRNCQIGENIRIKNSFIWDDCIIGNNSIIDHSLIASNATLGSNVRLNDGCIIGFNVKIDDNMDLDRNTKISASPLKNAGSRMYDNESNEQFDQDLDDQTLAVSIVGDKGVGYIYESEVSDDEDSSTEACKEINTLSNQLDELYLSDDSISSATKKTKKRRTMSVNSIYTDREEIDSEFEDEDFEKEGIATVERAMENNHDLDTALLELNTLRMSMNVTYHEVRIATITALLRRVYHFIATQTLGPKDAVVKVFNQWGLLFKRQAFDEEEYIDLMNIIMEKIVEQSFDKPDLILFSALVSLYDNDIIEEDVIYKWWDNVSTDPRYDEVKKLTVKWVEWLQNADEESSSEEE
T1 sequence (P14741 2-305 partner): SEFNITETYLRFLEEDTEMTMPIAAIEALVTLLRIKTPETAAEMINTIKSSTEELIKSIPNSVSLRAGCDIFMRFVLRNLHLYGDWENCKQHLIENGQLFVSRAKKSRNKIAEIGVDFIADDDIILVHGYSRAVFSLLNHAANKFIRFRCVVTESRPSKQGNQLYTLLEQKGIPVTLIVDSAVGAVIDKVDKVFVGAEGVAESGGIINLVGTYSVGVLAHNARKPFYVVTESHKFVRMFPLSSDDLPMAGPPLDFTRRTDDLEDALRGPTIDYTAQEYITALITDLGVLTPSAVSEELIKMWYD
T1 sequence (P32502 whole entry partner): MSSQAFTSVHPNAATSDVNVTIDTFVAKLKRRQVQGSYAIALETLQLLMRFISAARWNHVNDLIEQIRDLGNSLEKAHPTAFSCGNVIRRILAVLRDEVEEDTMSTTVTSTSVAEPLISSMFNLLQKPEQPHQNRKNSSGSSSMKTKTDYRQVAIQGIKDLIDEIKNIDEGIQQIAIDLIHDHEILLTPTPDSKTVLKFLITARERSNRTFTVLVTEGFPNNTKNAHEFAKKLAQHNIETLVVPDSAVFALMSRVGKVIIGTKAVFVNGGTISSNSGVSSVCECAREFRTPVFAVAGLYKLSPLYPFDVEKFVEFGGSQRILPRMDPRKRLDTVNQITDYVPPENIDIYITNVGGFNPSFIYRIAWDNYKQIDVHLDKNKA
T1 sequence (P12754 2-651 partner): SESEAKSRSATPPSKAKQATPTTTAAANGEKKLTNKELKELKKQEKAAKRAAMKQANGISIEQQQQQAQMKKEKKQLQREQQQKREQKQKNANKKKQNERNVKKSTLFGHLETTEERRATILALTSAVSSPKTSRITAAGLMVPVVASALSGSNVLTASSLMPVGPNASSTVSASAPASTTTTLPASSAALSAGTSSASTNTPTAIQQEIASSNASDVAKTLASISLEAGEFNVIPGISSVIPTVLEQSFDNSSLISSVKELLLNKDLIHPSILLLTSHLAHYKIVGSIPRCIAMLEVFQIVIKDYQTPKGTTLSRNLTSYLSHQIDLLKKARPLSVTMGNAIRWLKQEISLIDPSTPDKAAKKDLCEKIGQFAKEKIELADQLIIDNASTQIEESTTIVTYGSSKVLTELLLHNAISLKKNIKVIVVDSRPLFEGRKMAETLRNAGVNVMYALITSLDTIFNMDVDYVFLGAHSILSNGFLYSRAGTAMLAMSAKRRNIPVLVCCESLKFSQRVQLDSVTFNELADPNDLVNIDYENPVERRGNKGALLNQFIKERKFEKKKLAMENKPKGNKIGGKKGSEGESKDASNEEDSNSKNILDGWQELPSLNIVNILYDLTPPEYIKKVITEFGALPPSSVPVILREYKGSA

Row | Compound | competition filter binding against 32P-GTP
1 | Nc1nc2c(ncn2[C@@H]2O[C@H](COP(=O)(O)OP(=O)(O)O)[C@@H](O)[C@H]2O)c(=O)[nH]1 [GDP] | GTP was a more effective competitor than ATP or GDP
2 | Nc1ncnc2c1ncn2[C@@H]1O[C@H](COP(=O)(O)OP(=O)(O)OP(=O)(O)O)[C@@H](O)[C@H]1O [ATP] | suggesting eIF2B can bind both ATP and GTP, but with a preference for GTP
